Assay results as given in patent US7951359B2, “Compositions and methods for therapy or prevention of chemotherapy-induced neuropathy” (Merck Serono SA, priority 2004, dated 2011).

How the values were obtained:
[1] = system: vincristine induced neuropathy; experiment: Electromyography (EMG) in vincristine-treated rats; type: in vivo, rat
Description: In parallel to behavioral tests, electrophysiological test as described in Example 17, were carried out to evaluate fiber/nerve function in vincristine-administered rats vis-à-vis rats co-administrated with IL-6.
Electrophysiological recordings were performed using a Neuromatic 2000M electromyograph (EMG) (Dantec, Les Ulis, France). Rats were anaesthetized by IP injection of 60 mg/kg ketamine chlorhydrate (Imalgene 500®, Rhône Merieux, Lyon, France). The normal body temperature was maintained around […] with a heating lamp and verified using a contact thermometer (Quick, Bioblock Scientific, Illkirch, France) placed on the tail surface.
Compound muscle action potential (CMAP) of M wave signal (or electrically evoked muscle potential) was recorded in the gastrocnemius muscle after stimulation of the sciatic nerve. M wave reflects the current developed during the action potential of muscle fibers. A reference electrode and an active needle were placed in the hind paw. A ground needle was inserted on the lower back of the rat. Sciatic nerve was stimulated with a single 0.2 ms pulse at supramaximal intensity. The […] of the motor wave was recorded and expressed in ms.
Sensitive nerve conduction velocity (SNCV) was also recorded. The tail skin electrodes were placed as follows: a reference needle inserted at the base of the tail and an anode needle placed 30 mm away from the reference needle toward the extremity of the tail. A ground needle electrode was inserted between the anode and reference needles. The caudal nerve was stimulated with a series of 20 pulses (for 0.2 ms) at an intensity of 12.8 mA. The velocity was expressed in m/s.
H-wave reflex was recorded in the hind footpad muscle after stimulation of the sciatic nerve. A reference electrode and a ground needle were placed on the lower back of the rat. The sciatic nerve was stimulated with a single 0.2 ms pulse at supramaximal intensity. The amplitude (mV) of H wave and the proportion of animal lacking H wave response were the parameters studied.

[2] = system: vincristine induced neuropathy; experiment: Hindpaw skin biopsy, density of dermal nerve fibers in vincristine-treated rats; type: in vivo, rat; conditions: IL-6 10 μg/kg
Description: A 5-10 mm diameter area of skin was punch-biopsied from the hindpaw. Skin samples were immediately fixed overnight in paraformaldehyde at 4° C., incubated (overnight) in 30% sucrose in 0.1 M PBS for cryoprotection, embedded in OCT and frozen at −80° C. until cryocut. 50 μm-thick cryosections were then cut vertical to the skin surface with a cryostat. Free-floating sections were incubated for 7 days in a bath of rabbit anti-protein gene product 9.5 (1:10000; Ultraclone, Isle of Man, UK) at 4° C. The sections were then processed to reveal immunoreactivity according to the ABC peroxidase method. Briefly, they were incubated in for 1 hr with biotinylated anti-goat antibody (1:200), then 30 min in the avidin biotinylated complex at room temperature. Peroxidase activity was visualized using DAB system. Sections were then counterstained with eosin or hematoxylin. Sections were dehydrated, cleared with bioclear and mounted on eukitt. The number of dermal nerves of 3 microscope fields was counted manually under 40 magnification view.

[3] = system: Hybridoma growth factor (HGF) activity; experiment: Hybridoma growth factor (HGF) activity of IL-6; type: cell-based; conditions: based on Hybridoma growth factor (HGF) activity
Description: Recombinant human IL-6 (r-hlL-6) is produced in genetically engineered Chinese Hamster Ovary (CHO) cells. The production process begins with the growth and expansion of cells from a working cell bank (WCB) and continues under conditions where r-hlL-6 is secreted into the culture medium. The r-hlL-6 was harvested and purified from culture medium of the engineered cells.

[4] = system: vincristine induced neuropathy; experiment: Hot plate test in vincristine-treated rats; type: in vivo, rat
Description: The rat was placed inside a glass cylinder of 17 cm height and 21 cm diameter on a heating-plate maintained at 52° C. (Medite OTS 40, Microm, Francheville, Rhône, France). The animal behavior was observed, particularly the licking of a foot and the adjusted leap. The latency before licking a foot or before jumping to escape the heat (adjusted leap) was recorded. The time needed to feel the thermal pain is related to the thermal sensitivity and tends to increase when thermal sensitivity is altered.

[5] = rodents; cited from earlier work
[6] = system: vincristine induced neuropathy; experiment: Walking test (motor coordination) in vincristine-treated rats; type: in vivo, rat; conditions: IL-6 0.3, 1, 3, 10 μg/kg SC daily; 2 and 3 weeks
Description: The motor coordination was assessed using walking test, which consists at measuring the time taken by a rat placed at one extremity of a 100 cm-long horizontal wooden rod of 5.5 cm diameter, 40 cm above the table, to cover a distance of 1 m on this rod. Three tests (maximum duration: 60 s each) were performed, and the mean value was calculated and retained as characteristic value. If the animal fell down, it was scored with a maximum of 60 s.

## IL-6: Recombinant human IL-6 produced in genetically engineered Chinese Hamster Ovary (CHO) cells
[1]; IL-6 10 μg/kg SC daily with vincristine
  CMAP latency time: fully preserved their CMAP latency time
[1]; IL-6 0.3-10 μg/kg SC daily, p<0.05
  vincristine-induced CMAP latency: reduced
[1]; IL-6 1-10 μg/kg SC daily
  SNCV in vincristine treated animals: full restoration of SNCV
[1]; IL-6 1-10 μg/kg SC daily with vincristine
  H wave amplitude preservation: fully preserved the H wave amplitude
[1]; IL-6 3-10 μg/kg SC daily with vincristine
  protection against loss of M wave amplitude, duration: stable throughout the experiment
[1]; IL-6 all doses tested (0.3-10 μg/kg SC daily)
  prevention of vincristine-induced loss of M wave amplitude: prevent vincristine-induced loss of M wave amplitude
[1]; IL-6 vs 4-MC 10 μg/kg IP
  protection against vincristine-induced fiber/nerve function loss compared with 4-MC: confers better protection that 4-MC
[2]
  dermal fiber loss by vincristine: fully prevented
[3]
  potency: 23.3×10^6 IU/ml
[4]; IL-6 0.3, 1, 3, 10 μg/kg SC daily, 5 weeks
  prevention of vincristine-induced nociception loss (hot plate): significantly prevented nociception
[4]; IL-6 0.3-10 μg/kg SC vs 4-MC 10 μg/kg IP
  protection from vincristine-induced nociception loss compared with 4-MC: confers better protection that 4-MC
[5]
  active dose as thrombopoietic factor: above 500 μg/kg
[6]
  walking test, time to traverse the rod versus vincristine alone: traversed the rod faster
